Measurements published in patent publication US6420367B1, “Pyrimidine derivatives exhibiting antitumor activity” (Shionogo & Co., Ltd., priority 1998, dated 2002).
Values after ≈ are worked out from the molar mass of the structure shown.

Columns and labels:
[1] = system: DT-R cells (pRRE3-luc-transfected v-ki-ras-transformed NIH3T3 cells); signal derived from Ras oncogene products; assay: Inhibitory effect against cellular signaling derived from Ras oncogene products: luciferase reporter, dissociation of DT-R from DT-C activity (MAC); assay type: cell-based, mouse; conditions: minimal tested concentration at which luciferase activities of DT-C cells and DT-R cells dissociated
Procedure, shortened: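 DT-R (pRRE3-luc) and control DT-C (pGV-P) v-Ki-ras NIH3T3 cells were exposed 24 h to compound in 3-fold dilutions in DMEM/10% FCS at 37 °C, then lysed for luciferase luminescence. MAC is the lowest tested concentration at which DT-R and DT-C activities dissociate.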

[2] = system: human squamous lung cancer Ma44; assay: In vitro cell growth inhibition test, MTT assay; assay type: cell-based; conditions: MTT assay 4 days after compound addition
Procedure, shortened: (§1)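 Growth inhibition was measured by MTT assay across a panel of human tumour cell lines that also included pancreatic cancer PANC-1.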

[3] = system: human lung adenocarcinoma A549; assay: In vitro cell growth inhibition test, MTT assay; assay type: cell-based; conditions: MTT assay 4 days after compound addition
Procedure, shortened: as §1

[4] = system: human squamous lung cancer RERF-RC-AI; assay: In vitro cell growth inhibition test, MTT assay; assay type: cell-based; conditions: MTT assay 4 days after compound addition
Procedure, shortened: as §1

[5] = system: human pancreas cancer PANC-1; assay: In vitro cell growth inhibition test, MTT assay; assay type: cell-based; conditions: MTT assay 4 days after compound addition
Procedure, shortened: as §1

[6] = system: human colon cancer HT29; assay: In vitro cell growth inhibition test, MTT assay; assay type: cell-based; conditions: MTT assay 4 days after compound addition
Procedure, shortened: as §1

[7] = system: DT-C cells (pGV-P-transfected v-ki-ras-transformed NIH3T3 cells); assay: Luciferase activity in control DT-C cells (IC50-C): non-specific transcription-inhibitory effect or cytotoxicity; assay type: cell-based, mouse; conditions: tested concentration nearest to 50% inhibition in DT-C cells; index of non-specific transcription inhibition or cytotoxicity
From the text: Test Example 1 Inhibitory Effect Against Cellular Signaling Derived From Ras Oncogene Products
1) Establishment of Cell Lines Used in Assay
Based on the reporter plasmid (pGV-P (Toyo Ink, Japan)), in which luciferase gene was ligated to SV40-derived minimal promoter, we constructed a plasmid designated pRRE3-luc by inserting 3 copies of chemically synthesized oligonucleotides (Sequence: CAGGATATGACTCT, derived from mouse NVL-3 (M. A. Reddy et al.(1992)Mol. Endocrinol., 6, 1051)) into upstream of the promoter. v-ki-ras-transformed NIH3T3 cells (DT cells, provided by Dr. Makoto Noda (Kyoto Univ., School of medicine)) were transfected with this plasmid by liposome-mediated transfection and transfected cell lines stably incorporated and maintained each plasmid were obtained. We named pGV-P and pRRE3-transfected cell line as DT-C and DT-R, respectively and used in the assay described below.
2) Preparation of Samples
i) All the cell lines were cultured in Dulbecco's Modified Essential Medium (DMEM: 10% Fetal Calf Serum(FCS: Hyclone, USA)) including […] kanamycin (Meiji Seika, Japan) in humidified incubator under condition of 5% CO2 at 37° C.
ii) DT-C and DT-R cells were seeded at 2500 cells/well into flat-bottom 96 well multiplate (Sumitomo bakelite) and incubated for 24 hours.
iii) Test compounds were prepared as 1 mg/ml DMSO solution.
iv) The solution of test compounds were added to the culture. Tested compounds are used at the concentration from […] to 0.51 ng/ml with by 3-fold dilution.
v) After 24 hours, the culture supernatant was completely aspirated and […] of cell-lysing solution (PGC-50 (Toyo Ink, Japan)) was added before cells were dried up. In order to the cells were lysed completely, multiwell plates were left at room temperature for 10 to 30 min. The plates were wrapped up and stored at −20° C. till the day of measurement.
3) Measurement of Samples
i) Melt the samples by putting 96 well multiplate at 37° C. and add 90 μl/well 25 mM Tris (pH 7.5).
ii) Transfer 50 μl of the sample (110 μl) to the 96 well microplate for measurement (Microlite 1 (Dynatech)).
iii) Measure the samples by the luminometer, LUMINOUS CT9000D (Dia-Yatron, Japan). We used Pickagene luminescence kit PGL2000 or LT2.0 (Toyo Ink, Japan) as substrates for luminescence measurement (50 μl/well).
4) Judgment of the Results
i) The luciferase activity of DT-C cells and DT-R cells were plotted in the graph where the relative activity and the compound concentration were expressed as Y-axis and X-axis, respectively. We judged by the degree of dissociation between the activities of DT-C cells and DT-R cells as an index.
ii) Concretely, efficacy of the compound was expressed by two values described below.
b) Among the points of concentration tested, the concentration which is the nearest to 50% inhibition concentration at DT-C cells (IC50-C), was shown as an index of non-specific transcription-inhibitory effect or of cytotoxicity. In case of positive compounds, 50% inhibition concentration above the area of active concentration in DT-C cells was expressed as IC50-C.

SMILES | IC50, Ma44 [2] [µg/mL] | IC50, A549 [3] [µg/mL] | IC50, RERF-LC-AI [4] [µg/mL] | IC50, PANC-1 [5] [µg/mL] | IC50, HT29 [6] [µg/mL] | MAC (Minimal Active Concentration) [1] [µg/mL] | IC50-C [7] [µg/mL]
CCCNC(=Nc1nc(CC)ncc1CSc1nnc(-c2ccc([N+](=O)[O-])cc2)o1)NCC [Compound A-149] | 0.085 (≈ 0.181 µM) | 0.025 (≈ 0.0531 µM) | 0.026 (≈ 0.0553 µM) | 0.041 (≈ 0.0871 µM) | 0.034 (≈ 0.0723 µM) | 0.123 | 3.33 (≈ 7.08 µM)
CCNC(=Nc1ncncc1CSc1nnc(-c2ccc(CN)cc2)o1)NCC [Compound A-119] | 0.2 (≈ 0.485 µM) | 1.2 (≈ 2.91 µM) | 0.023 (≈ 0.0558 µM) | 0.068 (≈ 0.165 µM) | 0.1 (≈ 0.242 µM) | 0.37 | >10
CCc1ncc(CSc2nnc(-c3ccc(N)cc3)o2)c(N=C(NC)NC)n1 [Compound A-153] | 0.089 (≈ 0.223 µM) | 0.067 (≈ 0.168 µM) | 0.011 (≈ 0.0276 µM) | 0.022 (≈ 0.0552 µM) | 0.015 (≈ 0.0376 µM) | 0.0412 | >10
CCNC(=Nc1nc(C)ncc1CSc1nnc(-c2ccc(O)cc2)o1)NCC [Compound A-88] | 0.097 (≈ 0.235 µM) | 0.14 (≈ 0.339 µM) | 0.02 (≈ 0.0484 µM) | 0.036 (≈ 0.0871 µM) | 0.043 (≈ 0.104 µM) | 0.123 | >10
CCNC(=Nc1nc(C(C)C)ncc1CSc1nnc(-c2ccc([N+](=O)[O-])cc2)o1)NCC [Compound A-130] | 0.039 (≈ 0.0829 µM) | 0.074 (≈ 0.157 µM) | 0.023 (≈ 0.0489 µM) | 0.018 (≈ 0.0383 µM) | 0.029 (≈ 0.0616 µM) | 0.123 | 3.33 (≈ 7.08 µM)
CCCNC(=Nc1nc(CC)ncc1CSc1nnc(-c2ccc([N+](=O)[O-])cc2)o1)NCCC [Compound A-138] | 0.04 (≈ 0.0825 µM) | 0.046 (≈ 0.0949 µM) | 0.043 (≈ 0.0887 µM) | 0.026 (≈ 0.0537 µM) | 0.03 (≈ 0.0619 µM) | 0.0412 | 1.11 (≈ 2.29 µM)
CCCNC(=Nc1nc(C)ncc1CSc1nnc(-c2ccc([N+](=O)[O-])cc2)o1)NCCC [Compound A-127] | 0.017 (≈ 0.0361 µM) | 0.028 (≈ 0.0595 µM) | 0.015 (≈ 0.0319 µM) | 0.017 (≈ 0.0361 µM) | 0.018 (≈ 0.0383 µM) | 0.0137 | 3.33 (≈ 7.08 µM)
CCNC(=Nc1ncncc1CSc1nnc(-c2ccc([N+](=O)[O-])cc2)o1)NC(C)C [Compound A-121] | 0.02 (≈ 0.0452 µM) | 0.058 (≈ 0.131 µM) | 0.02 (≈ 0.0452 µM) | 0.02 (≈ 0.0452 µM) | 0.02 (≈ 0.0452 µM) | <0.000508 | >10
CCNC(=Nc1nc(C)ncc1CSc1nnc(-c2ccc([N+](=O)[O-])cc2OC)o1)NCC [Compound A-161] | 0.0071 (≈ 0.015 µM) | 0.012 (≈ 0.0254 µM) | 0.0068 (≈ 0.0144 µM) | 0.0053 (≈ 0.0112 µM) | 0.0055 (≈ 0.0116 µM) | 0.0412 | >10
CNC(=Nc1nc(C)ncc1CSc1nnc(-c2ccc([N+](=O)[O-])cc2)o1)NC [Compound A-145] | 0.032 (≈ 0.0772 µM) | 0.09 (≈ 0.217 µM) | 0.005 (≈ 0.0121 µM) | 0.014 (≈ 0.0338 µM) | 0.007 (≈ 0.0169 µM) | 0.0412 | >10
CCc1ncc(CSc2nnc(-c3ccc([N+](=O)[O-])cc3)o2)c(N=C(NC)NC)n1 [Compound A-152] | 0.039 (≈ 0.091 µM) | 0.069 (≈ 0.161 µM) | 0.006 (≈ 0.014 µM) | 0.013 (≈ 0.0303 µM) | 0.082 (≈ 0.191 µM) | 0.123 | >10
CCCNC(=Nc1nc(C)ncc1CSc1nnc(-c2ccc(Cl)cc2)o1)NCCC [Compound A-142] | 0.021 (≈ 0.0457 µM) | 0.038 (≈ 0.0826 µM) | 0.018 (≈ 0.0391 µM) | 0.015 (≈ 0.0326 µM) | 0.032 (≈ 0.0696 µM) | 0.0412 | 1.11 (≈ 2.41 µM)
CCNC(=Nc1nc(CC)ncc1CSc1nnc(-c2ccc([N+](=O)[O-])cc2)o1)NCC [Compound A-131] | 0.028 (≈ 0.0613 µM) | 0.03 (≈ 0.0657 µM) | 0.015 (≈ 0.0329 µM) | 0.028 (≈ 0.0613 µM) | 0.025 (≈ 0.0548 µM) | 0.0412 | >10
CCNC(=Nc1nc(C)ncc1CSc1nnc(-c2ccc(N)c(O)c2)o1)NCC [Compound A-89] | 0.86 (≈ 2.01 µM) | 0.15 (≈ 0.35 µM) | 0.016 (≈ 0.0373 µM) | 0.049 (≈ 0.114 µM) | 0.05 (≈ 0.117 µM) | 0.123 | >10

Now from value to molecule, other results behind:

IC50, Ma44 [2] [µg/mL] | IC50, A549 [3] [µg/mL] | IC50, RERF-LC-AI [4] [µg/mL] | IC50, PANC-1 [5] [µg/mL] | IC50, HT29 [6] [µg/mL] | SMILES | MAC (Minimal Active Concentration) [1] [µg/mL] | IC50-C [7] [µg/mL]
0.017 (≈ 0.0427 µM) | 0.012 (≈ 0.0301 µM) | 0.0028 (≈ 0.00703 µM) | 0.0059 (≈ 0.0148 µM) | 0.0055 (≈ 0.0138 µM) | CCNC(=Nc1nc(C)ncc1CSc1nnc(-c2ccc(N)cc2)o1)NC [Compound A-168] | 0.0412 | >10
0.32 (≈ 0.774 µM) | 0.33 (≈ 0.798 µM) | 0.037 (≈ 0.0895 µM) | 0.085 (≈ 0.206 µM) | 0.039 (≈ 0.0943 µM) | CCNC(=Nc1nc(C)ncc1CSc1nnc(-c2ccc(N)nc2)o1)NCC [Compound D-6] | 0.370 | >10
0.016 (≈ 0.0375 µM) | 0.014 (≈ 0.0328 µM) | 0.0056 (≈ 0.0131 µM) | 0.0073 (≈ 0.0171 µM) | 0.011 (≈ 0.0258 µM) | CCNC(=Nc1nc(C)ncc1CSc1nnc(-c2ccc(N)cc2)o1)NC(C)C [Compound A-182] | 0.0137 | 3.3 (≈ 7.74 µM)
0.057 | 0.048 | 0.014 | 0.017 | 0.014 | CCNC(=Nc1nc(C)ncc1CSc1nnc(-c2ccc(N)cc2)o1)NCC.Cl.Cl [Compound A-186] | 0.0412 | >10
0.017 | 0.025 | 0.012 | 0.014 | 0.013 | CCNC(=Nc1nc(C)ncc1CSc1nnc(-c2ccc([N+](=O)[O-])cc2)o1)NCC.Cl [Compound A-187] | 0.0137 | >10
0.014 (≈ 0.0315 µM) | 0.028 (≈ 0.063 µM) | 0.0085 (≈ 0.0191 µM) | 0.0093 (≈ 0.0209 µM) | 0.0067 (≈ 0.0151 µM) | CNC(=Nc1nc(C)ncc1CSc1nnc(-c2ccc([N+](=O)[O-])cc2OC)o1)NC [Compound A-162] | 0.123 | >10
